Data reported in patent US20230366887A1, “METHODS OF DETECTING AND USING BIOMARKERS FOR GLYCOGEN STORAGE DISEASES” (Duke University, priority 2020, published 2023).
Values joined by “and” are separate entries in the source; they are usually repeats but may differ in a detail not shown here. Identical values can stand only once.

Columns and labels:
1,5-AG = assay: Level of 1,5-AG in subjects having GSD Ib after Jardiance treatment; assay type: in vivo, human; details: reference range in normal adults 10.7-32.0, in µg/mL (unit assumed)
Description: The level of 1,5-AG was determined in 6 subjects having GSD Ib. Here, the reference range of 1,5-AG in normal, non-GSD Ib adults is 10.7-32.0.

[1] = cited from earlier work

| SMILES | Level of 1,5-AG After Jardiance Treatment (1,5-AG; first value after treatment) | Level of 1,5-AG After Jardiance Treatment (1,5-AG; later value ('then')) | half-life in blood ([1]; blood) | excreted amount in urine reabsorbed by the kidneys ([1]; reabsorption at sodium glucose active cotransporter (SGLT4)) |
| --- | --- | --- | --- | --- |
| OC[C@H]1O[C@@H](c2ccc(Cl)c(Cc3ccc(O[C@H]4CCOC4)cc3)c2)[C@H](O)[C@@H](O)[C@@H]1O [Jardiance] | 20.7 and 33.1 | 7.8 |  |  |
| OC[C@H]1OC[C@H](O)[C@@H](O)[C@@H]1O [1,5-AG, 1,5-anhydroglucitol] |  |  | 1-2 weeks | About 99.9% |
